Where two headings read alike, the source gives them in different places.

The values below come from patent publication US20230277661A1, “TREATMENT OF CANCER USING A CEA CD3 BISPECIFIC ANTIBODY AND A TGFbeta SIGNALING INHIBITOR” (Hoffmann-La Roche Inc., priority 2020, published 2023).

Test [1] has as its system PDOs that stably express high CEA levels. Put plainly: PDO and ex vivo CD8 T-cell co-culture with TGFβ inhibitor galunisertib. The class given is cell-based, human. Conditions: galunisertib 5 μM or 10 μM; TGFβ 10 ng/ml; cibisatamab 20 nM; ex vivo CD8 T cells, E:T 1:1; two PDO models. How it is done: PDOs that stably express high CEA levels were combined with ex vivo allogeneic CD8 T cells isolated from healthy donor PBMCs in a 2D co-culture at an effector:target (E:T) ratio of 1:1. T cells were preincubated with TGFβ (10 ng/ml) prior to adding either DP47 or cibisatamab treatment with or without TGFβ inhibitor galunisertib.
The growth of GFP PDOs was tracked by monitoring changes in confluency with fluorescence microscopy and efficacy of the combination therapy assessed by comparing growth reduction from single therapy and combined therapy conditions.
Ex vivo CD8 T cells were isolated from PBMCs as described above and pre-incubated with TGFβ (10 ng/ml) for 72 hours before being combined with tumour cells that were seeded 24 hours before at a density of 5000 tumour cells per well in a 96 well plate as described above (E:T 1:1). On the same day (day 0) the co-culture was treated with either 20 nM of cibisatamab or 20 nM of the untargeted negative control antibody DP47-TCB +/− TGFβ ([…]) +/− galunisertib (5 μM or 10 μM, Tocris). All conditions were plated in triplicates.
(§1) The GFP confluence was quantified every 48-96 hrs over a 12-day period using the GFP confluence application on the Celigo Imaging Cytometer (Nexcelom Bioscience). […] In order to calculate the percentage of growth reduction, the fold change of growth from day 0 to day 12 was calculated and 1 was subtracted. […]

Test [2] concerns patient-derived colorectal cancer organoid lines (PDOs) with high cell surface CEA expression levels. Put plainly: PDO growth in co-culture with CD8 or CD4 T cells (GFP confluence). The test is classed as cell-based, human. How it is done: Three patient-derived colorectal cancer organoid lines (PDOs) with high cell surface CEA expression levels were treated with cibisatamab (20 nM) or the corresponding untargeted control antibody DP47-TCB (see SEQ ID NOs 21 and 22 for VH and VL regions, respectively) (20 nM) either in the presence or absence of recombinant TGFβ1 (10 ng/ml) during 12 days of co-culture with allogeneic CD8 T cells at an Effector:Target ratio of […] (FIG. 1A). Growth of the nuclear GFP labelled organoid cells was monitored by fluorescent microscopy. CD8 T cells had been generated from allogeneic healthy donor cells by extracting peripheral blood mononuclear (PBMCs) cells followed by stimulation with IL-2 and CD3/CD28-beads and expansion in vitro. CD8 T cells and PDOs +/− TGFβ (10 ng/ml) were pre-incubated together for 72 hours prior to the addition of cibisatamab or DP47-TCB.
The same experiment was repeated using two PDO lines and CD4 T cells instead of CD8 T cells (FIG. 1B). CD4+CD25-T cells were isolated from allogeneic healthy donor PBMCs and expanded in vitro as described above.
The initial screen was generated with in vitro expanded and pre-activated CD8 T-cells. […]
In order to calculate the growth of cibisatamab treated PDOs relative to DP47-TCB treated PDOs, the fold change of growth from day 0 to day 12 was calculated and 1 was subtracted. […]
PDOs were harvested with TrypLE Express and neutralised with DMEM/F12 Ham medium (Sigma Aldrich) with 10% FBS. Cells were filtered through a 70 μm filter, counted and re-suspended in RPMI medium (Thermo Fisher) supplemented with 10% FBS (Labtech), 1X Glutamax and 100 units penicillin-streptomycin. […]
as §1

Another test concerns CD8 T-cells. Put plainly: FACS analysis of CD8 T-cells co-cultured with PDOs. The class given is cell-based, human. Conditions: 8 days co-culture with PDOs during CEA-TCB treatment; flow cytometry. On the procedure: FIG. 3. Effect of TGFβ on granzyme expression and proliferation of CD8 T-cells. (A) Granzyme expression in ex vivo CD8 T-cells determined by flow cytometry after 8 days of co-culture with a high cell surface CEA expressing PDO. (B) Proliferation of ex vivo CD8 T-cells treated with either DP47-TCB or cibisatamab assessed by flow cytometry after 8 days of co-culture with a high cell surface CEA expressing PDO. (C) Same as (B) except that co-culture was treated with recombinant TGFβ.
Thus, TGFβ potently suppresses cibisatamab mediated tumor control by blocking proliferation and effector functions.
(Flow cytometry measures light scatter and fluorescence of single cells or particles in a stream.)

For test [3], the system named is CEA expressing metastatic CRCs. Conditions: cited from earlier work.

With `Cc1cccc(-c2nn3c(c2-c2ccnc4ccc(C(N)=O)cc24)CCC3)n1` [Galunisertib, 4-(5,6-Dihydro-2-(6-methyl-2-pyridinyl)-4H-pyrrolo(1,2-b)pyrazol-3-yl)-6-quinolinecarboxamide], the “reversal of TGFβ effects on cibisatamab activity (PDO growth)” value in test [1] is on record as “strongly reduced TGFβ effects”.

For “TGFβ: recombinant TGFβ1 (10 ng/ml, R&D Systems) added to the co-cultures as immunosuppressive factor”, in test [2] (TGFβ 10 ng/ml added, day 12, CD8 and CD4 T cells), the “growth of cibisatamab treated PDOs compared to PDOs treated with cibisatamab alone” value was “increased the growth of cibisatamab treated PDOs”. Besides, in test [2] (TGFβ1 10 ng/ml, cibisatamab 20 nM, CD8 and CD4 T cells, 12 days co-culture), the “effect of TGFβ on efficacy of cibisatamab” value was “impaired the efficacy of cibisatamab”. In addition, in the test on CD8 T-cells, the T-cell granzyme expression result is given as “strongly reduced” and the “proliferation of T-cells” value is “strongly reduced”.

B1: cibisatamab: T-cell activating bispecific antibody targeting carcinoembryonic antigen (CEA) on tumor cells and CD3 on T-cells (antibody, chains of the INN, looked up, V domains shown)
VH: QVQLVQSGAEVKKPGASVKVSCKASGYTFTEFGMNWVRQAPGQGLEWMGWINTKTGEATYVEEFKGRVTFTTDTSTSTAYMELRSLRSDDTAVYYCARWDFAYYVEAMDYWGQGTTVTVSS
VL: DIQMTQSPSSLSASVGDRVTITCKASAAVGTYVAWYQQKPGKAPKLLIYSASYRKRGVPSRFSGSGSGTDFTLTISSLQPEDFATYYCHQYYTYPLFTFGQGTKLEIK
VH2: B1 VH
VL2: QAVVTQEPSLTVSPGGTVTLTCGSSTGAVTTSNYANWVQEKPGQAFRGLIGGTNKRAPGTPARFSGSLLGGKAALTLSGAQPEDEAEYYCALWYSNLWVFGGGTKLTVL
As to B1, in test [2] (cibisatamab 20 nM, day 12, CD8 or CD4 T cells), the “growth of PDOs relative to DP47-TCB treated (control) PDOs” value is “reduced the growth of PDOs”. Moreover, the “antitumor activity with radiological shrinkage, share of patients” value in test [3] (in combination with PD-L1-inhibiting antibodies, 5/10) is 50%; in test [3] (monotherapy, patients had failed at least two prior chemotherapy regimens, 4/36), 11%.
